Data: patent US9468641B2, “Anti-inflammatory pharmaceutical composition comprising benzopyranyl tetracycles” (SEOUL NATIONAL UNIVERSITY R&DB FOUNDATION, priority 2014, dated 2016)

These compounds were tested on BV-2 cells (assay: Griess assay of LPS-induced nitrite release in BV-2 cells). Settings: BV-2 cells, Griess assay; expressed as percentages of the nitrite level produced upon DMSO treatment (100%).
Type: cell-based
Experimental: Cells increase the secretion of nitrite when induced to be inflammatory, but decrease the secretion of nitrite in the presence of an anti-inflammatory agent. […] Cells were treated with the compounds in the absence or presence of 100 ng/mL LPS (lipopolysaccharide). After 24 hrs of incubation, the cell culture media were reacted with Griess reagent (0.1% naphthylethylenediamine dihydrochloride and 1% sulfanilamide in 2% phosphoric acid). Absorbance was measured at 550 nm using a microplate reader, and the level of nitrite was estimated by comparison with a sodium nitrite standard curve.

SMILES | NO inhibition (%)
CC1(C)Oc2cc(O)ccc2C2C1=CCn1c(=O)n(C3CCCCC3)c(=O)n12 (centres unmarked) [Chemical Formula 3] | 38.0
Cn1c(=O)n2n(c1=O)C1C(=CC2)C(C)(C)Oc2cc(O)ccc21 (centres unmarked) [Chemical Formula 4] | 75.0
CC1(C)Oc2cc(O)ccc2C2C1=CCn1c(=O)n(Cc3ccccc3)c(=O)n12 (centres unmarked) [Chemical Formula 5] | 63.0
Cc1ccc(-n2c(=O)n3n(c2=O)C2C(=CC3)C(C)(C)Oc3cc(O)ccc32)cc1 (centres unmarked) [Chemical Formula 6] | 41.8
CC1(C)Oc2cc(O)ccc2C2C1=CCn1c(=O)n(-c3ccc(C(C)(C)C)cc3)c(=O)n12 (centres unmarked) [Chemical Formula 7] | 92.1
COc1ccc(-n2c(=O)n3n(c2=O)C2C(=CC3)C(C)(C)Oc3cc(O)ccc32)cc1 (centres unmarked) [Chemical Formula 8] | 77.7
COc1cccc(-n2c(=O)n3n(c2=O)C2C(=CC3)C(C)(C)Oc3cc(O)ccc32)c1 (centres unmarked) [Chemical Formula 9] | 90.8
CC1(C)Oc2cc(O)ccc2C2C1=CCn1c(=O)n(-c3ccc(F)cc3)c(=O)n12 (centres unmarked) [Chemical Formula 10] | 76.4
CC1(C)Oc2cc(O)ccc2C2C1=CCn1c(=O)n(-c3ccccc3I)c(=O)n12 (centres unmarked) [Chemical Formula 11] | 55.2
CC1(C)Oc2cc(O)ccc2C2C1=CCn1c(=O)n(-c3cccc([N+](=O)[O-])c3)c(=O)n12 (centres unmarked) [Chemical Formula 12] | 70.4
O=c1n(-c2ccccc2)c(=O)n2n1CC=C1C2c2ccc(O)cc2OC12CCCC2 (centres unmarked) [Chemical Formula 13] | 70.4
O=c1n(C2CCCCC2)c(=O)n2n1CC=C1C2c2ccc(O)cc2OC12CCCC2 (centres unmarked) [Chemical Formula 14] | 48.8
Cn1c(=O)n2n(c1=O)C1C(=CC2)C2(CCCC2)Oc2cc(O)ccc21 (centres unmarked) [Chemical Formula 15] | 41.4
O=c1n(Cc2ccccc2)c(=O)n2n1CC=C1C2c2ccc(O)cc2OC12CCCC2 (centres unmarked) [Chemical Formula 16] | 53.2
Cc1ccc(-n2c(=O)n3n(c2=O)C2C(=CC3)C3(CCCC3)Oc3cc(O)ccc32)cc1 (centres unmarked) [Chemical Formula 17] | 72.1
CC(C)(C)c1ccc(-n2c(=O)n3n(c2=O)C2C(=CC3)C3(CCCC3)Oc3cc(O)ccc32)cc1 (centres unmarked) [Chemical Formula 18] | 99.7
COc1ccc(-n2c(=O)n3n(c2=O)C2C(=CC3)C3(CCCC3)Oc3cc(O)ccc32)cc1 (centres unmarked) [Chemical Formula 19] | 58.3
COc1cccc(-n2c(=O)n3n(c2=O)C2C(=CC3)C3(CCCC3)Oc3cc(O)ccc32)c1 (centres unmarked) [Chemical Formula 20] | 63.0
O=c1n(-c2ccc(F)cc2)c(=O)n2n1CC=C1C2c2ccc(O)cc2OC12CCCC2 (centres unmarked) [Chemical Formula 21] | 58.7

SMILES | NO inhibition (%)
O=c1n(-c2ccccc2I)c(=O)n2n1CC=C1C2c2ccc(O)cc2OC12CCCC2 (centres unmarked) [Chemical Formula 22] | 67.1
O=c1n(-c2cccc([N+](=O)[O-])c2)c(=O)n2n1CC=C1C2c2ccc(O)cc2OC12CCCC2 (centres unmarked) [Chemical Formula 23] | 81.5
CC1(C)Oc2cc(O)ccc2C2C1=CCn1c(=O)n(-c3ccc(Cl)cc3)c(=O)n12 (centres unmarked) [Chemical Formula 24] | 22.3
O=c1n(-c2ccc(Cl)cc2)c(=O)n2n1CC=C1C2c2ccc(O)cc2OC12CCCC2 (centres unmarked) [Chemical Formula 25] | 44.0
CC1(C)Oc2cc(O)ccc2C2C1=CCn1c(=O)n(-c3ccccc3Cl)c(=O)n12 (centres unmarked) [Chemical Formula 26] | 57.1
O=c1n(-c2ccccc2Cl)c(=O)n2n1CC=C1C2c2ccc(O)cc2OC12CCCC2 (centres unmarked) [Chemical Formula 27] | 44.8
CC1(C)Oc2cc(O)ccc2C2C1=CCn1c(=O)n(-c3ccc(Br)cc3)c(=O)n12 (centres unmarked) [Chemical Formula 28] | 58.4
O=c1n(-c2ccc(Br)cc2)c(=O)n2n1CC=C1C2c2ccc(O)cc2OC12CCCC2 (centres unmarked) [Chemical Formula 29] | 44.0
Cn1c(=O)n2ccc3c(n2c1=O)-c1ccc(O)cc1OC3(C)C [Chemical Formula 31] | 12.1
CC1(C)Oc2cc(O)ccc2C2C1C=Cn1c(=O)n(-c3ccccc3)c(=O)n12 (centres unmarked) [Chemical Formula 32] | 24.9
O=c1n(-c2ccccc2)c(=O)n2n1CCC1C2c2ccc(O)cc2OC12CCCC2 (centres unmarked) [Chemical Formula 33] | 41.8
COc1cccc(-n2c(=O)n3n(c2=O)C2c4ccc(O)cc4OC(C)(C)C2C=C3)c1 (centres unmarked) [Chemical Formula 34] | 4.9
CC1(C)Oc2ccccc2C2C1=CCn1c(=O)n(-c3ccccc3)c(=O)n12 (centres unmarked) [Chemical Formula 35] | 1.2
COc1ccc2c(c1)OC(C)(C)C1=CCn3c(=O)n(-c4ccccc4)c(=O)n3C12 (centres unmarked) [Chemical Formula 36] | 3.2
CCOC(=O)CCC1(C)Oc2cc(O)ccc2C2C1=CCn1c(=O)n(-c3ccccc3)c(=O)n12 (centres unmarked) [Chemical Formula 39] | 44.9
CC1(C)Oc2cc(O)ccc2C2C1=CCn1c(=O)n(-c3ccc(C(F)(F)F)cc3)c(=O)n12 (centres unmarked) [Chemical Formula 47] | 36.0
CC1(C)Oc2cc(O)ccc2C2C1=CCn1c(=O)n(-c3ccc(C(=O)c4ccccc4)cc3)c(=O)n12 (centres unmarked) [Chemical Formula 48] | 65.5
COC(=O)CCC1(C)Oc2cc(O)ccc2C2C1=CCn1c(=O)n(-c3ccc(C)cc3)c(=O)n12 (centres unmarked) [Chemical Formula 49] | 63.2
CCNC(=O)CCC1(C)Oc2cc(O)ccc2C2C1=CCn1c(=O)n(-c3ccc(C)cc3)c(=O)n12 (centres unmarked) [Chemical Formula 51] | 6.2
